Columns and labels:
[1] = biological target: T1, BioSTING (Mus musculus, UniProt Q3TBT3); assay: DRaCALA radioactive nucleotide binding assay of BioSTING; parameters: species or system murine; details: excess (500 µM) unlabeled nucleotide
T1 construct: FRET pair mTFP and mKO2 at L152 and E335, respectively; His tag (N); made in house; host or cells: E. coli Rosetta (DE3)pLysS
T1 sequence (Q3TBT3 152-335): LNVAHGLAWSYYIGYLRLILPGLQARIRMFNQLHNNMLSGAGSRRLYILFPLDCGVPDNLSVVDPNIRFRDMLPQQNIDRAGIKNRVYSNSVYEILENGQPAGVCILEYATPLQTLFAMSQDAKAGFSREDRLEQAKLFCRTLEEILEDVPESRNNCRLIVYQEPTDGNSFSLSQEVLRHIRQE

[2] = biological target: T2, STING-CTD (mSTING-CTD) (Mus musculus, UniProt Q3TBT3); assay: DRaCALA radioactive nucleotide binding assay of STING-CTD; parameters: species or system murine; details: excess (500 µM) unlabeled nucleotide
T2 construct: made in house; host or cells: E. coli Rosetta (DE3)pLysS; plasmid pET28-mSTING-CTD, gift from Russell Vance
T2 sequence (Q3TBT3 134-378 limits assumed): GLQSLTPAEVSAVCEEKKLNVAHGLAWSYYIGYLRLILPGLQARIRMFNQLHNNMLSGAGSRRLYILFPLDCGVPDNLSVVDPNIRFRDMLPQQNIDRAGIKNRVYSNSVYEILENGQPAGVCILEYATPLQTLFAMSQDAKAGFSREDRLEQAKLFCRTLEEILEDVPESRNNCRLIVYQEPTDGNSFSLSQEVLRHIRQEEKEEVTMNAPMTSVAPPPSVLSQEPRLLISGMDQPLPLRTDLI

Row | SMILES | competition of bound [32P] 2ʼ3ʼ-cGAMP by unlabeled nucleotide [1] | competition of bound [32P] 2ʼ3ʼ-cGAMP by unlabeled nucleotide [2]
1 | Nc1ncnc2c1ncn2[C@@H]1O[C@H](COP(=O)(O)OP(=O)(O)OP(=O)(O)O)[C@@H](O)[C@H]1O [ATP] | not | not
2 | Nc1nc2c(ncn2[C@@H]2O[C@H](COP(=O)(O)OP(=O)(O)OP(=O)(O)O)[C@@H](O)[C@H]2O)c(=O)[nH]1 [GTP] | not | not
3 | Nc1nc2c(ncn2[C@@H]2O[C@@H]3COP(=O)(O)O[C@H]3[C@H]2O)c(=O)[nH]1 [cGMP] | not | not
